The source of these data is patent publication US5599815A, “Antipsychotic benzoisothiazolyl piperazine derivatives” (Meiji Seika Kabushiki Kaisha, priority 1993, dated 1997).

Read-outs that look alike come from different tables or passages of the source.

For series [1], the system named is hyper locomotion induced by methamphetamine in mice. In words: Anti-methamphetamine effect (antipsychotic activity): suppression of hyper locomotion induced by methamphetamine in mice. Particulars: ip; for ED50: Mus musculus, read-out: Anti-methamphetamine effect ED50. The class given is in vivo, mice (male ddY). As for the experimental part:
Antipsychotic activity was evaluated on the basis of the suppressive activity on the stimulation of hyper locomotion induced by methamphetamine in mice. Male ddY mice having a weight of 25-35 g were divided into groups consisting of 3-6 animals. The mouse was subcutaneously administered with methamphetamine (2 mg/kg) fifteen minutes before the compound of the present invention was intraperitoneally administered. After further fifteen minutes, the animal was then placed in an apparatus to measure the locomotion for thirty minutes. (MUROMACHI KIKAI, ANIMEX AUTO MK-110) The effects of haloperidol and chlorpromazine were also evaluated as controls.

The test system of a further series is catalepsy in mice. In words: Cataleptogenic activity (extrapyramidal side effect): catalepsy provoking effect in mice. The settings on record: ip. As for the experimental part: (§1) The extrapyramidal activity was evaluated on the basis of the catalepsy provoking effect as a representative pharmacological evaluation method of the extrapyramidal effect. Male ddY mice having a body weight of 25-35 g which were divided into groups consisting of 3-6 animals were subjected to the test. The compound of the present invention was administered intraperitoneally to observe catalepsy after 20, 30 and 40 minutes, respectively. Catalepsy was judged as positive in such cases that a mouse whose front paw was compulsorily hung up on an iron bar having a diameter of 1 mm and horizontally laid at a height of 3 cm remained in such a strained posture for more than 30 seconds.

Experiment in series [2]: as above
Particulars: mouse, in vivo, ip. As for the experimental part: as §1

Where [3] appears, read: male ddY mice, methamphetamine 2 mg/kg sc 15 min before compound, locomotion measured for 30 min.

What is called ED50 is the midpoint of the dose-response relation. Regarding `CN(C)CCCN1c2ccccc2Sc2ccc(Cl)cc21` [Chlorpromazine, chlorpromazine], the ED50 in series [1] amounted to 1.05 mg/kg. In series [1] (male ddY mice), the “anti-methamphetamine activity, that is the anti-psychotic activity (in words)” value (from here on “anti-methamphetamine activity”) is “have the anti-methamphetamine activity”. For the same compound, in the series on catalepsy in mice (male ddY mice), the “catalepsy provoking effect / extrapyramidal side effect (in words)” value is “strong catalepsy provoking effect”. Besides, the TD50 in series [2] came out at 6.2 mg/kg.
Turning to `c1ccc2c(N3CCN(CCCCn4c5ccccc5c5ccccc54)CC3)nsc2c1` [Example 2, 9-[4-[4-(1,2-benzisothiazol-3-yl)-1-piperazinyl]butyl]carbazole], the ED50 in series [1] (setting [3]) was found to be 1.15 mg/kg. In addition, the “anti-methamphetamine activity” value in series [1] (male ddY mice) is given as “have the anti-methamphetamine activity”. The “catalepsy provoking effect / extrapyramidal side effect (in words)” value in the series on catalepsy in mice (mouse, in vivo) is “very weak extrapyramidal side effect”. In addition, the TD50 in series [2] is greater than 100 mg/kg.
For `O=c1ccc2ccccc2n1CCCN1CCN(c2nsc3ccccc23)CC1` [Example 5, 1-[4-[4-(1,2-benzisothiazol-3-yl)-1-piperazinyl]propyl]-2(1H)-quinolinone] the same measures were 0.92 mg/kg, “have the anti-methamphetamine activity”, “very weak extrapyramidal side effect” and 83.3 mg/kg.
As for `O=C(CCCN1CCC(O)(c2ccc(Cl)cc2)CC1)c1ccc(F)cc1` [Haloperidol, haloperidol], the ED50 in series [1] was found to be 0.16 mg/kg. In addition, the “anti-methamphetamine activity” value in series [1] (male ddY mice) is “have the anti-methamphetamine activity”. For the same compound, in the series with catalepsy in mice (male ddY mice), the “catalepsy provoking effect / extrapyramidal side effect (in words)” value was “strong catalepsy provoking effect”. For the same compound, the TD50 in series [2] worked out at 1.3 mg/kg.
